The test system of assay [1] is kidney and liver tumors in Tsc1+/− mice. In words: Treatment trial in Tsc1+/− mouse model of Tsc (1 month study). The class given is in vivo. The settings on record: female mice only. How it is done: (§1) Also trials of treatment with a Compound A in mouse models of Tsc may be carried out (1 month study). A first trial is performed in the Tsc1+/− mice, in which there is a sex effect on tumor development, so that female mice are studied only. A second trial is performed in Tsc2+/− mice, in which the use of the carcinogen ENU is performed to enhance and accelerate the rate of tumor formation in the kidney.

The test system of assay [2] is kidney and liver tumors in Tsc2+/− mice. Put plainly: Treatment trial in Tsc2+/− mouse model of Tsc with carcinogen ENU (1 month study). Type of assay: in vivo. The settings on record: ENU to accelerate kidney tumor formation. The method, then:
as §1

In assay [3] the test system is Tsc1−/− and Tsc2−/− and control MEF cell lines. Put plainly: Growth of Tsc1−/−, Tsc2−/− and control MEF cell lines, MTT assay. Type of assay: cell-based. The settings on record: Tsc1 null and control MEF cell lines. From the text:
MEF cell lines are generated in which there is loss of either Tsc1 or Tsc2 and which have a profound decrease in signaling through Akt. Decreased Akt activation may be seen in response to all stimuli, including serum, PDGF, EGF, insulin, and IGF1. […] In addition, over-expression of PDGFRα by short or long-term transfection leads to increased Akt phosphorylation and stimulation in response to multiple growth factors.
Signaling in Tsc 1 or Tsc 2 null MEFs in response to IGF1 in combination with a Compound A may be explored. Wortmannin may be used as an […].
Growth of Tsc1−/− and Tsc2−/− and control MEF cell lines in serum may be assessed in triplicate wells of cells plated at uniform density using the MTT assay. Growth responses are normalized individually for each cell line, to growth in the absence of any stimulation.
Background: Formazan colour is commonly taken as a measure of viable cells.

For assay [4], the system named is NF1 deficient cell or animals (mice) models. In words: Activity in neurofibromatosis, NF1 deficient cell or animal models. From the text: Activity in neurofibromatosis may be determined in NF1 deficient cell or animals (mice) models, e.g. analogously to TSC deficient cell or animals (mice) models.

With `CO[C@H]1C[C@@H]2CC[C@@H](C)[C@@](O)(O2)C(=O)C(=O)N2CCCC[C@H]2C(=O)O[C@H]([C@H](C)C[C@@H]2CC[C@@H](OCCO)[C@H](OC)C2)CC(=O)[C@H](C)/C=C(\C)[C@@H](O)[C@@H](OC)C(=O)[C@H](C)C[C@H](C)/C=C/C=C/C=C/1C` [Compound A, 40-O-(2-hydroxyethyl)-rapamycin], the “reduction of kidney and liver tumors” value in assay [1] was “dramatic effect in reducing kidney and liver tumors”; in assay [2] it was “dramatic effect in reducing kidney and liver tumors”. Also, the “growth response of the cells to IGF1” value in assay [3] (IGF1 stimulation) was “blocks any growth response of the cells to IGF1”. Besides, the “growth of the cell lines (MTT assay)” value in assay [3] (serum or IGF1 stimulation, all conditions) is on record as “significantly reduces growth under all conditions”. In assay [4], the “activity in neurofibromatosis assays” value is recorded as “shows activity”.

For the origin of these results see US20100305150A1, “TUBEROUS SCLEROSIS TREATMENT” (priority 2006, published 2010).
